Patent US8263060B2, “Fast degrading polymers” (Rutgers, The State University of New Jersey, priority 2005, dated 2012)
≈ marks a conversion by molar mass, not a printed value.

Test: Solubility in PBS degradation media
Format: physicochemical
Conditions: aqueous buffer

solubility: 56 mg/mL (≈ 283 mM)
SMILES: COc1cc(C(=O)O)cc(OC)c1O [syringic acid]
